In BindingDB's records for doi:10.1007/bf00965909 (Biological Research Center of Hungarian Academy of Sciences, 1990):
Several values for one entry are separate records, joined by “and”; a condition that tells them apart may be missing. Identical values can stand only once.

Experiments:
[1] = biological target: kappa-type opioid receptor isoform 1 (Xenopus tropicalis, UniProt F7A0F2)
[2] = biological target: Kappa-type opioid receptor (Rattus norvegicus, UniProt P34975)
Chain of Kappa-type opioid receptor (P34975 whole entry): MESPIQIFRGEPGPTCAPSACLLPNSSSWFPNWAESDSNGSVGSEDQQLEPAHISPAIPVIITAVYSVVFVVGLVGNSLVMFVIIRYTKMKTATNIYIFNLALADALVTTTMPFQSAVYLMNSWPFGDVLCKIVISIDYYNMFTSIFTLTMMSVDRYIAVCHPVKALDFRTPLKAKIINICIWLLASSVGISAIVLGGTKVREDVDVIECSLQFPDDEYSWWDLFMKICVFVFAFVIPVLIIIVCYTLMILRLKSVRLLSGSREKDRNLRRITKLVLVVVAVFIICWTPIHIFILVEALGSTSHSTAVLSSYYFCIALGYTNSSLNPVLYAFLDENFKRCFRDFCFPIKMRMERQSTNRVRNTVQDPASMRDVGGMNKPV

Chain of kappa-type opioid receptor isoform 1 (F7A0F2 whole entry, canonical isoform): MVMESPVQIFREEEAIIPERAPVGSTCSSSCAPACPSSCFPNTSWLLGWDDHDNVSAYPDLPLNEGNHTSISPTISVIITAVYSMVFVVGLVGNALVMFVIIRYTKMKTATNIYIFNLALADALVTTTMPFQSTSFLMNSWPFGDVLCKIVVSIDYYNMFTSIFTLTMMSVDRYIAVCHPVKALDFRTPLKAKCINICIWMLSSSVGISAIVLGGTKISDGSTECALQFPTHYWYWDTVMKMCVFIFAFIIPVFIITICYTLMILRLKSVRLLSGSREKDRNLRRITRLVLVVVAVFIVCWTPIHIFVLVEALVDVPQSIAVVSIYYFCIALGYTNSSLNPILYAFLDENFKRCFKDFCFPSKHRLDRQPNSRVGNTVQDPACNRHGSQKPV

Row | Compound | Ki [1] | Ki [2]
1 | CC1[C@H]2Cc3ccc(O)cc3[C@]1(C)CCN2C[C@@H]1CCCO1 (stereo partly drawn) [(+)-alpha-(1R,5R,9R)-5,9-Dimethyl-2-L-tetrahydrofurfuryl)-2'-hydroxy-6,7-benzomorphan] | 5400 nM | 
2 | CC1[C@H]2Cc3ccc(O)cc3[C@]1(C)CCN2C[C@H]1CCCO1 (stereo partly drawn) [CAS_57236-85-8] | 4.8 nM | 
3 | CC[C@H](C)[C@H](NC(=O)[C@H](CCCNC(=N)N)NC(=O)[C@H](CCCNC(=N)N)NC(=O)[C@H](CC(C)C)NC(=O)[C@H](Cc1ccccc1)NC(=O)CNC(=O)CNC(=O)[C@@H](N)Cc1ccc(O)cc1)C(=O)N[C@@H](CCCNC(=N)N)C(=O)N1CCC[C@H]1C(=O)N[C@@H](CCCCN)C(=O)N[C@@H](CC(C)C)C(=O)N[C@@H](CCCCN)C(=O)O [Dynorphin A (1-13)] | 12 nM and 3.1 nM | 57 nM
4 | [N-]=[N+]=N[C@@H]1CC[C@H]2[C@H]3Cc4ccc(O)c5c4[C@@]2(CCN3CC2CC2)[C@@H]1O5 [N-cyclopropylmethylnorazidomorphine] | 0.1 nM | 0.1 nM and 0.2 nM and 0.3 nM
5 | C[C@@H](NC(=O)[C@@H](N)Cc1ccc(O)cc1)C(=O)NCC(=O)N(C)[C@@H](Cc1ccccc1)C(=O)NCCO [[tyrosyl-3,5-3H(N)]-D-Ala2-Mephe4-glyol5-enkephalin] | 59 nM and 360 nM and 470 nM | 
6 | H-YGGFMTSEKSQTPLVTLFKNAIVKNAHKKGQ-OH [Beta-Endorphin] |  | 2.3 nM
